Test results: patent US20240182456A1, “2-((4-((S)-2-(4-CHLORO-2-FLUOROPHENYL)-2-METHYLBENZO[D][1,3]DIOXOL-4-YL)PIPERIDIN-1-YL)METHYL)-1-(((S)-OXETAN-2-YL)METHYL)-1H-IMIDAZOLE DERIVATIVES AS ACTIVATORS OF THE GLP1 RECEPTOR FOR THE TREATMENT OF OBESITY” (Novartis AG, priority 2021, published 2024)

Molecular target: human GLP1R (hGLP1R) (Homo sapiens, UniProt P43220)
Experiment: Human GLP1R cAMP agonist assay (GloSensor)
Assay type: cell-based
Details: HEK293-SNAP-hGLP1R-GloSensor cells; for Emax: cAMP, normalized to GLP1(7-36) maximum response, read-out: Emax mean; for EC50: intracellular cAMP, mean n=3 where SEM is given
Procedure, shortened: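 HEK293 cells stably expressing SNAP-tagged hGLP1R and the GloSensor-22F cAMP luciferase biosensor, pre-loaded 2 h with substrate, then exposed 12 min at rt to compound (30–0.06 μM, 0.5 mM IBMX, 0.1% BSA). Luminescence normalized to 2 nM GLP1(7-36); EC50 and Emax from 4-parameter logistic fit.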

Chain of human GLP1R (hGLP1R) (P43220 24-463): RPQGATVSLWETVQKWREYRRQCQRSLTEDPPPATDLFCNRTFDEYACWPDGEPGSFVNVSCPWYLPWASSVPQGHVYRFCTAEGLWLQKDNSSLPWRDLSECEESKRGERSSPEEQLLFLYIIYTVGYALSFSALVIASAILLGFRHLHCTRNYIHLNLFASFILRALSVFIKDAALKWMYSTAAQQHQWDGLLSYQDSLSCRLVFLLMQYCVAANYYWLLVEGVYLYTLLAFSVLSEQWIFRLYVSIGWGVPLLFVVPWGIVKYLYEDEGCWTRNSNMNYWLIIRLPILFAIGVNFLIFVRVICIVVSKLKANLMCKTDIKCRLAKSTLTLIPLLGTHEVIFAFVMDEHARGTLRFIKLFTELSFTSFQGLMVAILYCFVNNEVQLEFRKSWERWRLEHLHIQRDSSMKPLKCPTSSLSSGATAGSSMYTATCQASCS

**Q.** With Cc1nc(CN2CCC(c3cccc4c3O[C@@](C)(c3ccc(Cl)cc3F)O4)CC2)n(C[C@@H]2CCO2)c1/C=C/C(=O)O [Compound C-5, (E)-3-(2-((4-((S)-2-(4-chloro-2-fluorophenyl)-2-methylbenzo[d][1,3]dioxol-4-yl)piperidin-1-yl)methyl)-4-methyl-1-(((S)-oxetan-2-yl)methyl)-1H-imidazol-5-yl)acrylic acid] as the compound, how does the Emax read?
**A.** 110%

**Q.** And the EC50?
**A.** 0.0129 nM

**Q.** How did the Emax turn out when C[C@]1(c2ccc(Cl)cc2F)Oc2cccc(C3CCN(Cc4nc(/C=C/C(=O)O)cn4C[C@@H]4CCO4)CC3)c2O1 [Compound C-2, (E)-3-(2-((4-((S)-2-(4-chloro-2-fluorophenyl)-2-methylbenzo[d][1,3]dioxol-4-yl)piperidin-1-yl)methyl)-1-(((S)-oxetan-2-yl)methyl)-1H-imidazol-4-yl)acrylic acid] was run?
**A.** 109%

**Q.** And the EC50?
**A.** 2.23 nM

**Q.** How did the Emax turn out when C[C@]1(c2ccc(Cl)cc2F)Oc2cccc(C3CCN(Cc4ncc(/C=C/C(=O)O)n4C[C@@H]4CCO4)CC3)c2O1 [Compound C-1, (E)-3-(2-((4-((S)-2-(4-chloro-2-fluorophenyl)-2-methylbenzo[d][1,3]dioxol-4-yl)piperidin-1-yl)methyl)-1-(((S)-oxetan-2-yl)methyl)-1H-imidazol-5-yl)acrylic acid] was run?
**A.** 111%

**Q.** What about the EC50 of the same compound?
**A.** 0.0197 nM

**Q.** C[C@]1(c2ccc(Cl)cc2F)Oc2cccc(C3CCN(Cc4nc(C(F)(F)F)c(C(=O)O)n4C[C@@H]4CCO4)CC3)c2O1 [Compound C-7, 2-((4-((S)-2-(4-chloro-2-fluorophenyl)-2-methylbenzo[d][1,3]dioxol-4-yl)piperidin-1-yl)methyl)-1-(((S)-oxetan-2-yl)methyl)-4-(trifluoromethyl)-1H-imidazole-5-carboxylic acid] was tested. Which Emax did it give?
**A.** 109%

**Q.** And the EC50?
**A.** 0.847 nM
